Assay [1] concerns the target T1, Sodium- and chloride-dependent GABA transporter 3 (Homo sapiens) (UniProt P48066).
T1 sequence (whole entry): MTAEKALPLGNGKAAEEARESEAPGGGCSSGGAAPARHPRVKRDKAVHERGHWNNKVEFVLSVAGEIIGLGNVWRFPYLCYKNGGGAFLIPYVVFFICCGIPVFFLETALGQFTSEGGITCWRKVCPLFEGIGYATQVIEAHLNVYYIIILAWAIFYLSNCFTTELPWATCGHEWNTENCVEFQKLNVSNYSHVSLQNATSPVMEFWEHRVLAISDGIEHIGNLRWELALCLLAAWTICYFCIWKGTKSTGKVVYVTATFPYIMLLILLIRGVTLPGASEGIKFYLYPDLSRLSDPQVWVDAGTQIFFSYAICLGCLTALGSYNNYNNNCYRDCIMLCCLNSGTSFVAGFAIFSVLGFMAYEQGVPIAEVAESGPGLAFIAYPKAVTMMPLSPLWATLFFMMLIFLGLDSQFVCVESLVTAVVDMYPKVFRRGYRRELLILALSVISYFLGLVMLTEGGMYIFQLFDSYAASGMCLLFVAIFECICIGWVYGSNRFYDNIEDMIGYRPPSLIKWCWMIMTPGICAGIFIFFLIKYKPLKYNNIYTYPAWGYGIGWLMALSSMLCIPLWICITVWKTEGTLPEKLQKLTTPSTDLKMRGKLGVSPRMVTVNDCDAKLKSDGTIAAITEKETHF
The experiment in a line: Inhibition of human GAT3 expressed in CHO cells assessed as reduction in [3H]GABA uptake at 100 uM after 20 mins by liquid scintillation counting analysis relative to control. In kind it is cell-based.

In assay [2] the target is T2, Sodium- and chloride-dependent GABA transporter 2 (Homo sapiens) (UniProt Q9NSD5).
T2 sequence (whole entry): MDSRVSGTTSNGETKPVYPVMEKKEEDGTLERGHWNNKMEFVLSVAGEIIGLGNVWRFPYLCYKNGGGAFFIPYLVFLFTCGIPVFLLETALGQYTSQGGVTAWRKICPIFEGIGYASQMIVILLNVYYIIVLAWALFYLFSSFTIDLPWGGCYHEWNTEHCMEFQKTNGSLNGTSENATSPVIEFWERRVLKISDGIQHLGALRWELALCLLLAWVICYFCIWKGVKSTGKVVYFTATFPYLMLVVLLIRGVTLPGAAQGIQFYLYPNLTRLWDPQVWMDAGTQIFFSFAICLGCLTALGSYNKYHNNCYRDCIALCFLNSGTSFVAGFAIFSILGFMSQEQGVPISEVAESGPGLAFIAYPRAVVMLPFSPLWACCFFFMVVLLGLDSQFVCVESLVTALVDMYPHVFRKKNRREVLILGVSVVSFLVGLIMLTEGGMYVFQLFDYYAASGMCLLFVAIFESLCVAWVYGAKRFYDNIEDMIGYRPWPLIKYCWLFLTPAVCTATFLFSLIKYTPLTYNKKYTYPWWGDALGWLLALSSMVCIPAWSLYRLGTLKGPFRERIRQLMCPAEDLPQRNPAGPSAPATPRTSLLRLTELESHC
The experiment in a line: Inhibition of human GAT2 expressed in CHO cells assessed as reduction in [3H]GABA uptake at 100 uM after 20 mins by liquid scintillation counting analysis relative to control. The class given is cell-based.

The target of assay [3] is Sodium- and chloride-dependent GABA transporter 1 (Homo sapiens) (UniProt P30531). The experiment in a line: Inhibition of human GAT1 expressed in CHO cells assessed as reduction in [3H]GABA uptake at 100 uM after 20 mins by liquid scintillation counting analysis relative to control. The class given is cell-based.
For assay [4], the target named is T3, Sodium- and chloride-dependent betaine transporter (Homo sapiens) (UniProt P48065).
T3 sequence (whole entry): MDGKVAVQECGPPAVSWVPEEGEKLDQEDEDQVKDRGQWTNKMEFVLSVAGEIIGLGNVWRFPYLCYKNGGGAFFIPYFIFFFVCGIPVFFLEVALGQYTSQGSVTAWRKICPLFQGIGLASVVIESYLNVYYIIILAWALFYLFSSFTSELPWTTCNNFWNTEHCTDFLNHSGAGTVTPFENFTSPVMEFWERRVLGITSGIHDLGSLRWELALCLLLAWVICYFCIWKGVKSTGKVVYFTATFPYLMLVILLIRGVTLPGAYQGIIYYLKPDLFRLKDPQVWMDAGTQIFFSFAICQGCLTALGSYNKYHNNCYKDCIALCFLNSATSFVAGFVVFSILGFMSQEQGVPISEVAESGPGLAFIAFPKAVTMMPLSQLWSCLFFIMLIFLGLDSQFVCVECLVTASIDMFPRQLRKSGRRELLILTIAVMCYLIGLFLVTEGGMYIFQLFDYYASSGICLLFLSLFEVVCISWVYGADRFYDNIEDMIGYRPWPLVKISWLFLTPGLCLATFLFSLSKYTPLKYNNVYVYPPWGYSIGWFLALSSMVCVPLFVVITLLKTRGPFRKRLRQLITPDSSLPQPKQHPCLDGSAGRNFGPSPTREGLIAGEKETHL
The experiment in a line: Inhibition of human BGT1 expressed in CHO cells assessed as reduction in [3H]GABA uptake at 100 uM after 20 mins by liquid scintillation counting analysis relative to control. In kind it is cell-based.

The species named for another assay is Homo sapiens. The experiment in a line: Selectivity for human BGT1 over human GAT3.

Sodium- and chloride-dependent GABA transporter 1 (Homo sapiens), sequence (P30531 whole entry, looked up): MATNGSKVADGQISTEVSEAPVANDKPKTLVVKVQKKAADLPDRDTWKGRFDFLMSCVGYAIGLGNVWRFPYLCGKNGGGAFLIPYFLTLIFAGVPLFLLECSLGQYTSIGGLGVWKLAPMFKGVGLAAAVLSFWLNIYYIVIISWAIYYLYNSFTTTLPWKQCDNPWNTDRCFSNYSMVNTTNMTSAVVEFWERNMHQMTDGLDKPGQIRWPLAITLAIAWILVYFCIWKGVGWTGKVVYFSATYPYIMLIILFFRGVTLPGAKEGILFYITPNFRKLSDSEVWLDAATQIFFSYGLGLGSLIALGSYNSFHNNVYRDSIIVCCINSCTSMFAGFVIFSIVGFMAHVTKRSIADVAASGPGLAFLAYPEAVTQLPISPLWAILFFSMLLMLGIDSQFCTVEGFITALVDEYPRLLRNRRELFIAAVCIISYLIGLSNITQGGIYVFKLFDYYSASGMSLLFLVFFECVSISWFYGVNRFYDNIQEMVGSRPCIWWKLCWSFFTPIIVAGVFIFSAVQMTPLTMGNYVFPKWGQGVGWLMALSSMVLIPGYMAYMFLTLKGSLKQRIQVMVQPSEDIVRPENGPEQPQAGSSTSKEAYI

Broadly, the inhibition is the drop in the measured response relative to a control, in per cent. As to `C=C[C@@H](C(=O)O)[C@@H]1C[C@H]1N`, the inhibition in assay [1] is -3.6%; in assay [2], -9.5%.
Turning to `CC[C@@H](C(=O)O)[C@@H]1C[C@H]1N`, the inhibition in assay [1] was -2.4%; in assay [2] it was 3.3%; in assay [3], 8.6%; in assay [4], 13.4%.
For the compound `CC[C@H](C(=O)O)[C@@H]1C[C@H]1N`, the inhibition was -2.4% in assay [2], 12.2% in assay [3] and -1.3% in assay [4].
With `N[C@@H]1C[C@H]1[C@@H](F)C(=O)O`, the results for the inhibition in assay [1], in assay [2] and in assay [4] were 5.2%, 45.3% and 22.2%, respectively.
Regarding `C[C@@H](C(=O)O)[C@@H]1C[C@H]1N`, the inhibition in assay [1] was 9.3%; in assay [2], -5.2%; in assay [3], 4.3%; in assay [4] it was 62.7%. Besides, the Selectivity ratio in the assay listed under Homo sapiens is 5 to 7.
Turning to `[N-]=[N+]=N[C@@H](C(=O)O)[C@@H]1C[C@H]1N`, the inhibition in assay [1] was 11.8%; in assay [2] it was 6.8%; in assay [4] it was 57.2%. In addition, the Selectivity ratio in the assay listed under Homo sapiens lay within 5 to 7.
For `N[C@@H]1C[C@H]1[C@@H](O)C(=O)O`, the inhibition was 8.3% in assay [1], 20.1% in assay [2] and 44.7% in assay [4]. The Selectivity ratio in the assay listed under Homo sapiens lay within 5 to 7.
For the compound `C[C@H](C(=O)O)[C@@H]1C[C@H]1N`, the inhibition in assay [1] was 25.6%; in assay [3] it was 0%; in assay [4], 57.3%.

Source of the values: ChEMBL document CHEMBL4265902, “Design and synthesis of cyclopropane-based conformationally restricted GABA analogues as selective inhibitors for betaine/GABA transporter 1” (Bioorg Med Chem Lett, 2018).
